Reference: patent US10233186B2, “Inhibitors of activin receptor-like kinase” (BLUEPRINT MEDICINES CORPORATION, priority 2016, dated 2019)
pIC50: −log10 of the molar value.

Tests used:
[1] = target: T1, ALK2 R206H (GST-tagged mutant ALK2) (Homo sapiens, UniProt Q04771, R206H); experiment: ALK binding assay (LANTHASCREEN TR-FRET competitive binding, displacement of Kinase Tracer 178); details: ALK2 R206H, LANTHASCREEN TR-FRET competitive binding; read-out: Binding Assay (IC50)
T1 construct: purchased Carna Bioscience or ThermoFisher 09-148 or PV6232
T1 sequence (Q04771 21-509 R206H): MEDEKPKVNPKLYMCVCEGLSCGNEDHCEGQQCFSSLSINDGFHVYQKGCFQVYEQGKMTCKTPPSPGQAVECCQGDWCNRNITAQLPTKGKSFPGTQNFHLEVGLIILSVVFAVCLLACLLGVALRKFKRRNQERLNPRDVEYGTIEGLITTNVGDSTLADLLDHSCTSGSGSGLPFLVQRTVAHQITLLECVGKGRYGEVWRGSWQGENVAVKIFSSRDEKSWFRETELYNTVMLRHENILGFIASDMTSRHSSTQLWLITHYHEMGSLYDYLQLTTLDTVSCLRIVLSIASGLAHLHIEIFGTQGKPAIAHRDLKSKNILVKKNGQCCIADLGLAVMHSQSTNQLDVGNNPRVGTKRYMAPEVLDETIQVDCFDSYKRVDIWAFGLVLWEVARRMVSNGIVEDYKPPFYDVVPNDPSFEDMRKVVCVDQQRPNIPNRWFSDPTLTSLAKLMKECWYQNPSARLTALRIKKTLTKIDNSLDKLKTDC
Experimental: Binding assays were conducted using the LANTHASCREEN® technology (ThermoFisher Scientific). LANTHASCREEN® is a competitive binding, displacement assay where the assumed steady state occupancy of the binding site is measured using a time-resolved, fluorescence energy transfer (TR-FRET) readout between a fluorescent tracer and Europium (Eu)-tagged antibody specific for the kinase or expression tag (e.g. GST) of interest. Displacement of the tracer by a compound of the disclosure reduces, and is directly proportional to, the TR-FRET between the tracer and the antibody. Tracer was used at a concentration equal to or near to its Kd for the kinase.
In all cases, the kinase (2-5 nM) was mixed with Eu-tagged antibody (10 nM) mix and tracer (50 nM) were incubated with test compound titrations prepared in 100% DMSO (1% DMSO final) for 30 minutes at room temperature. All reagents and compounds were dissolved in Kinase Buffer A (ThermoFisher) to achieve the final concentration. […] This readout was normalized to 0% and 100% inhibited control wells, plotted against inhibitor concentration, and fitted to a 4-parameter log dose response curve.
(§1) Blank values in the table indicate that the particular compound was not tested in this assay.

human ALK2 R206H = target: T2, human ALK2 R206H (Homo sapiens, UniProt Q04771, R206H); experiment: Cell-based ALK2-R206H cell activity assay (Smad1-Ser463/Ser465 phosphorylation by AlphaLISA in HEK293-ALK2-R206H cells); details: read-out: Cell Line (Cell Assay IC50)
T2 construct: expressed in transfected cells; host or cells: HEK293 (ATCC CRL1573), lentivirus transduction, blasticidin selection
T2 sequence (Q04771 21-509 R206H): T1 sequence (Q04771 21-509 R206H)
Experimental: A HEK293 (ATCC, Cat^# CRL1573) based stable cell line expressing human ALK2 R206H cDNA (synthesized by GeneScript, Piscataway, N.J.) and a FLAG tag at the C-terminus was generated by lentivirus transduction and subsequent blasticidin (Life Technologies, Cat^#-A1113902) selection at 10 μg/ml for >2 wks. This cell line was named HEK293-ALK2-R206H.
Test compounds were first diluted to 4 mM or 0.4 mM and then serially diluted 3-fold into 10 different concentrations using DMSO. […] Two μl of the diluted compounds were then dispensed into the HEK293-ALK2-R206H cell-containing wells of the microplates in duplicates. In this way, each compound was tested in 10 doses (3-fold serial dilution with the top concentration being 10 μM or 1 μM). Liquid handling was achieved using a Bravo Automated Liquid Handling Platform (Agilent Technologies). DMSO without compound was used as a negative control. The positive control was 1 μM LDN193189, a known bone morphogenetic protein (BMP inhibitor).
The 10-point dose response curve was used to calculate the IC50 values.
as §1

O=C(C1CC1)N1CCN(c2ccnn3cc(-c4cnn(C5CNC5)c4)cc23)CC1 [Compound 100]
pIC50 [1]: > 8.00 | pIC50 (human ALK2 R206H): 6.30 to 7.00

O=C(C1CC1)N1CCN(c2ccnn3cc(-c4ccc(C5CNC5)cc4)cc23)CC1 [Compound 102]
pIC50 [1]: > 8.00 | pIC50 (human ALK2 R206H): 6.30 to 7.00

O=C(C1CC1)N1CCN(c2ccnn3cc(-c4cnn(C5CCCC5)c4)cc23)CC1 [Compound 103]
pIC50 [1]: 7.30 to 8.00 | pIC50 (human ALK2 R206H): < 6.30

O=C(C1CC1)N1CCN(c2ccnn3cc(-c4cnn(C5CCNC5)c4)cc23)CC1 (centres unmarked) [Compound 104]
pIC50 [1]: > 8.00 | pIC50 (human ALK2 R206H): 6.30 to 7.00

O=C(C1CC1)N1CCN(c2ccnn3cc(-c4cc5c(s4)CNCC5)cc23)CC1 [Compound 107]
pIC50 [1]: > 8.00 | pIC50 (human ALK2 R206H): > 7.00

O=C(C1CC1)N1CCN(c2ccnn3cc(-c4nc5c(s4)CNCC5)cc23)CC1 [Compound 109]
pIC50 [1]: > 8.00 | pIC50 (human ALK2 R206H): > 7.00

CC(C)(C#N)c1ccc(-c2cc3c(N4CCN(C(=O)C5CC5)CC4)ccnn3c2)cc1 [Compound 110]
pIC50 [1]: 7.30 to 8.00 | pIC50 (human ALK2 R206H): 6.30 to 7.00

O=C(C1CC1)N1CCN(c2ccnn3cc(-c4ccc(C5=NCCN5)cc4)cc23)CC1 [Compound 111, cyclopropyl(4-(6-(4-(4,5-dihydro-1H-imidazol-2-yl)phenyl)pyrrolo[1,2-b]pyridazin-4-yl)piperazin-1-yl)methanone]
pIC50 [1]: > 8.00 | pIC50 (human ALK2 R206H): 6.30 to 7.00

O=C(C1CC1)N1CCN(c2ccnn3cc(-c4ccc(C5CCNC5)cc4)cc23)CC1 (centres unmarked) [Compound 112]
pIC50 [1]: > 8.00 | pIC50 (human ALK2 R206H): 6.30 to 7.00

O=C(C1CC1)N1CCN(c2ccnn3cc(-c4ccc(C5CCCN5)cc4)cc23)CC1 (centres unmarked) [Compound 113]
pIC50 [1]: > 8.00 | pIC50 (human ALK2 R206H): > 7.00

O=C(C1CC1)N1CCN(c2ccnn3cc(-c4ccc(OC5CNC5)cc4)cc23)CC1 [Compound 115]
pIC50 [1]: > 8.00 | pIC50 (human ALK2 R206H): 6.30 to 7.00

O=C(C1CC1)N1CCN(c2ccnn3cc(-c4cnn(C5CCCNC5)c4)cc23)CC1 (centres unmarked) [Compound 116]
pIC50 [1]: > 8.00 | pIC50 (human ALK2 R206H): > 7.00

O=C(C1CC1)N1CCN(c2ccnn3cc(-c4cnn(C5CCNCC5)c4)cc23)CC1 [Compound 117]
pIC50 [1]: > 8.00 | pIC50 (human ALK2 R206H): 6.30 to 7.00

CCN1CC(n2cc(-c3cc4c(N5CCN(C(=O)C6CC6)CC5)ccnn4c3)cn2)C1 [Compound 118]
pIC50 [1]: > 8.00 | pIC50 (human ALK2 R206H): 6.30 to 7.00

O=C(C1CC1)N1CCN(c2ccnn3cc(-c4ccc5c(c4)COC54CNC4)cc23)CC1 [Compound 120]
pIC50 [1]: > 8.00 | pIC50 (human ALK2 R206H): 6.30 to 7.00

O=C(C1CC1)N1CCN(c2ccnn3cc(-c4ccc(C5CCNCC5)cc4)cc23)CC1 [Compound 122]
pIC50 [1]: > 8.00 | pIC50 (human ALK2 R206H): > 7.00

O=C(C1CC1)N1CCN(c2ccnn3cc(-c4ccc(C5CCCNC5)cc4)cc23)CC1 (centres unmarked) [Compound 123]
pIC50 [1]: > 8.00 | pIC50 (human ALK2 R206H): 6.30 to 7.00

CCN1CC(c2ccc(-c3cc4c(N5CCN(C(=O)C6CC6)CC5)ccnn4c3)cc2)C1 [Compound 124]
pIC50 [1]: > 8.00 | pIC50 (human ALK2 R206H): > 7.00

O=C(C1CC1)N1CCN(c2ccnn3cc(-c4ccc(C5CCCCN5)cc4)cc23)CC1 (centres unmarked) [Compound 125]
pIC50 [1]: > 8.00 | pIC50 (human ALK2 R206H): > 7.00

O=C(C1CC1)N1CCN(c2ccnn3cc(-c4ccc(N5CCNCC5)cc4)cc23)CC1 [Compound 127, cyclopropyl(4-(6-(4-(piperazin-1-yl)phenyl)pyrrolo[1,2-b]pyridazin-4-yl)piperazin-1-yl)methanone]
pIC50 [1]: > 8.00 | pIC50 (human ALK2 R206H): > 7.00

O=C(C1CC1)N1CCN(c2ccnn3cc(-c4cccc(C5CNCCO5)c4)cc23)CC1 (centres unmarked) [Compound 128]
pIC50 [1]: 7.30 to 8.00 | pIC50 (human ALK2 R206H): 6.30 to 7.00

O=C(C1CC1)N1CCN(c2ccnn3cc(-c4ccc(C5CNCCO5)cc4)cc23)CC1 (centres unmarked) [Compound 129]
pIC50 [1]: > 8.00 | pIC50 (human ALK2 R206H): > 7.00
